Our source for the logP values is US20220144815A1, “1,3,4-OXADIAZOLES AND THEIR DERIVATIVES AS NEW ANTIFUNGAL AGENTS” (Bayer Aktiengesellschaft, priority 2018, published 2022).

The nature of this data set: Log P by HPLC on reversed phase columns, method [a] (EEC directive 79/831 Annex V.A8). Format: physicochemical. Particulars: log P determined according to method [a] (HPLC on reversed phase columns). Here is the method:
Measurement of Log P values as provided herein was performed according to EEC directive 79/831 Annex V.A8 by HPLC (High Performance Liquid Chromatography) on reversed phase columns with the following methods: • ^[a] Log P value is determined by measurement of LC-UV, in an acidic range, with 0.1% formic acid in water and acetonitrile as eluent (linear gradient from 10% acetonitrile to 95% acetonitrile). • ^[b] Log P value is determined by measurement of LC-UV, in a neutral range, with 0.001 molar ammonium acetate solution in water and acetonitrile as eluent (linear gradient from 10% acetonitrile to 95% acetonitrile). • ^[c] Log P value is determined by measurement of LC-UV, in an acidic range, with 0.1% phosphoric acid and acetonitrile as eluent (linear gradient from 10% acetonitrile to 95% acetonitrile). If more than one Log P value is available within the same method, all the values are given and separated by “+”. Calibration was done with straight-chain alkan2-ones (with 3 to 16 carbon atoms) with known Log P values (measurement of Log P values using retention times with linear interpolation between successive alkanones). Lambda-max-values were determined using UV-spectra from 200 nm to 400 nm and the peak values of the chromatographic signals In table 1, the log P values were determined according to method [^a]. In table 2, the log P values were determined according to method [^a].
Broadly, the logP is a log measure of how a compound divides between an organic and an aqueous phase. The low end stands for a more hydrophilic compound, the high end for a more lipophilic compound. The compound `FC(F)c1nnc(-c2ccc(-n3ccnn3)cc2)o1` [Example I-005] registered a logP of 1.73.

`COC(=O)c1ccc(-c2nnc(C(F)(F)F)o2)cc1` [Example I-006] returned a logP of 2.97.

Compound `FC(F)c1nnc(-c2ccc(-c3ccccc3)cc2)o1` [Example I-007] returned a logP of 3.57.

Compound `O=C(O)c1ccc(-c2nnc(C(F)(F)F)s2)cc1` [Example I-008] showed a logP of 2.41.

Regarding `FC(F)c1nnc(-c2ccc(Br)cc2)o1` [Example I-009], the logP turned out to be 2.89.

As for `FC(F)c1nnc(-c2ccc(Cn3ccnc3)cc2)o1` [Example I-010], the logP turned out to be 0.60.

As to `COC(=O)c1ccc(-c2nnc(C(F)(F)F)s2)cc1` [Example I-011], the logP worked out at 3.23.

Turning to `O=C(Nc1ccc(-c2nnc(C(F)F)o2)cc1)C(F)F` [Example I-012], the logP was determined as 2.01.

`FC(F)c1nnc(-c2ccc(Nc3ncccn3)cc2)o1` [Example I-013] registered a lipophilicity (logP) of 2.23.

`CCc1noc(-c2ccc(-c3nnc(C(F)F)o3)cc2)n1` [Example I-015] came in with a logP of 2.94.

Turning to `COCCNC(=O)c1ccc(-c2nnc(C(F)F)o2)cc1` [Example I-016], the log partition coefficient (logP) stood at 1.58.

As to `Fc1ccccc1Nc1ccc(-c2nnc(C(F)F)o2)cc1` [Example I-017], the logP was determined as 3.19.

The compound `CCc1noc(-c2ccc(-c3nnc(C(F)(F)F)o3)cc2)n1` [Example I-018] yielded a logP of 3.59.

Turning to `FC(F)c1nnc(-c2ccc(-c3nnc(C(F)F)o3)cc2)o1` [Example I-019], the logP stood at 2.44.

In turn, `COCCNC(=O)c1ccc(-c2nnc(C(F)(F)F)o2)cc1` [Example I-020] yielded a logP of 2.04.

`CC1(C)OB(c2ccc(-c3nnc(C(F)F)o3)cc2)OC1(C)C` [Example I-021] showed a logP of 3.84.

`CN(C(=O)c1ccc(-c2nnc(C(F)F)o2)cc1)c1ccccc1` [Example I-022] came in with a logP of 2.46.

As to `FC(F)c1nnc(-c2ccc(COc3ccc(Cl)cc3)cc2)o1` [Example I-024], the logP amounted to 4.03.

Compound `Fc1ccccc1C1(Nc2ccc(-c3nnc(C(F)F)o3)cc2)CC1` [Example I-025] had a logP of 3.57.

In turn, `CN(C(=O)c1ccc(-c2nnc(C(F)(F)F)o2)cc1)c1ccccc1` [Example I-026] came in with a log partition coefficient (logP) of 3.04.

Turning to `O=C(Nc1ccc(F)cc1F)c1ccc(-c2nnc(C(F)F)o2)cc1` [Example I-027], the logP turned out to be 2.57.

The compound `O=C(Nc1ccc(F)cc1F)c1ccc(-c2nnc(C(F)(F)F)o2)cc1` [Example I-028] came in with a logP of 3.12.

Compound `O=C(Nc1ccc(F)cc1F)c1ccc(-c2nnc(C(F)(F)F)s2)cc1` [Example I-029] returned a logP of 3.29. The logP values of the last two compounds are within 0.2 log units of each other.

`Nc1ccc(-c2nnc(C(F)F)o2)cn1` [Example I-030] returned a logP of 0.11.

In the case of `FC(F)c1nnc(-c2ccc(Cl)nc2)o1` [Example I-031], the log partition coefficient (logP) came to 1.92.

As for `O=C(O)c1ccc(-c2nnc(C(F)F)o2)cn1` [Example I-032], the logP is listed as 0.83.

With `CNC(=O)c1ccc(-c2nnc(C(F)F)o2)cn1` [Example I-033], the logP was 1.32.

For `CC(=O)Nc1ccc(-c2nnc(C(F)F)o2)cn1` [Example I-034], the lipophilicity (logP) came to 1.32.

Take `FC(F)c1nnc(-c2ccc(-c3ccco3)nc2)o1` [Example I-035]: the log partition coefficient (logP) is listed as 2.33.

As to `FC(F)c1nnc(-c2ccc(-n3cccn3)nc2)o1` [Example I-036], the logP stood at 2.31.

Take `FC(F)c1nnc(-c2ccc(C(F)(F)F)nc2)o1` [Example I-037]: the logP stood at 2.39.

The compound `COC(=O)Nc1ccc(-c2nnc(C(F)F)o2)cn1` [Example I-038] gave a logP of 1.66.

`C#CCNC(=O)c1ccc(-c2nnc(C(F)F)o2)cn1` [Example I-039] gave a logP of 1.68.

`FC(F)c1nnc(-c2ccc(N3CCCCC3)nc2)o1` [Example I-040] showed a logP of 2.72.

In turn, `FC(F)c1nnc(-c2ccc(N3CCOCC3)nc2)o1` [Example I-041] displayed a logP of 1.91.

Compound `CN(C)NC(=O)c1ccc(-c2nnc(C(F)F)o2)cn1` [Example I-042] showed a logP of 1.14.

`FC(F)c1nnc(-c2ccc(Oc3ccccc3)nc2)o1` [Example I-043]: the logP is given as 2.90.

As to `CC1(NC(=O)c2ccc(-c3nnc(C(F)F)o3)cn2)CC1` [Example I-044], the logP was determined as 2.02.

`CC1(C(=O)Nc2ccc(-c3nnc(C(F)F)o3)cn2)CC1` [Example I-045] registered a logP of 2.28.

`O=C(NCC1CC1)c1ccc(-c2nnc(C(F)F)o2)cn1` [Example I-046] had a logP of 2.16.

For the compound `COCCNC(=O)c1ccc(-c2nnc(C(F)F)o2)cn1` [Example I-047], the logP is 1.55.

On to `Cc1ccc(NC(=O)c2ccc(-c3nnc(C(F)F)o3)cn2)cc1` [Example I-048], for which the logP came to 3.14.

`CN(C(=O)c1ccc(-c2nnc(C(F)F)o2)cn1)c1ccccc1` [Example I-049]: the logP was 2.05.

Compound `O=C(Cc1ccccc1)Nc1ccc(-c2nnc(C(F)F)o2)cn1` [Example I-050] returned a logP of 2.54.

`O=C(Nc1ccccc1)Nc1ccc(-c2nnc(C(F)F)o2)cn1` [Example I-051] showed a logP of 2.57.

`CC(Nc1ccc(-c2nnc(C(F)F)o2)cn1)c1ccc(F)cc1` (centres unmarked) [Example I-052] registered a logP of 2.95.

The compound `Fc1ccccc1Nc1ccc(-c2nnc(C(F)(F)Cl)o2)cn1` [Example I-053] gave a logP of 3.54.

As to `Fc1ccc(C2(Nc3ccc(-c4nnc(C(F)F)o4)cn3)CC2)cc1` [Example I-054], the logP is 2.79.

As to `O=C(Nc1ccc(-c2nnc(C(F)F)o2)cn1)c1ccc(F)cc1F` [Example I-055], the logP was 2.77.

`Fc1ccccc1C1(Nc2ccc(-c3nnc(C(F)(F)Cl)o3)cn2)CC1` [Example I-057]: the logP worked out at 3.81.

For the compound `CC(C)(C)OC(=O)N1CCN(c2ccc(-c3nnc(C(F)F)o3)cn2)CC1` [Example I-058], the lipophilicity (logP) stood at 3.25.

`Nc1ncc(-c2nnc(C(F)F)o2)cn1` [Example I-059]: the logP is reported as 0.75.

`CNc1ncc(-c2nnc(C(F)F)o2)cn1` [Example I-060] showed a logP of 1.23.

On to `FC(F)c1nnc(-c2cnc(Cl)nc2)o1` [Example I-061], for which the lipophilicity (logP) is 1.55.

For the compound `CN(C)c1ncc(-c2nnc(C(F)F)o2)cn1` [Example I-062], the logP is recorded as 1.87.

As for `C#CCNc1ncc(-c2nnc(C(F)F)o2)cn1` [Example I-063], the log partition coefficient (logP) was 1.59.

As to `CN(C)Nc1ncc(-c2nnc(C(F)F)o2)cn1` [Example I-064], the logP worked out at 0.76.

`FC(F)c1nnc(-c2cnc(C3=CCCC3)nc2)o1` [Example I-065] had a logP of 2.70.

As for `CC1(Nc2ncc(-c3nnc(C(F)F)o3)cn2)CC1` [Example I-066], the logP is reported as 1.90.

Compound `FC(F)c1nnc(-c2cnc(NCC3CC3)nc2)o1` [Example I-067] had a logP of 2.16.

In the case of `COCCNc1ncc(-c2nnc(C(F)F)o2)cn1` [Example I-068], the lipophilicity (logP) was 1.48.

`FC(F)c1nnc(-c2cnc(-c3ccccc3)nc2)o1` [Example I-069]: the logP turned out to be 2.98.
